Reference: publication PMC6271978, “1H-2,3-Dihydroperimidine Derivatives: A New Class of Potent Protein Tyrosine Phosphatase 1B Inhibitors” (Molecules, 2013)

Assays:
PTP1B (GST-PTP1B) = molecular target: T1, PTP1B (GST-PTP1B) (Homo sapiens, UniProt P18031); assay: PTP1B inhibition, colorimetric pNPP assay; type: biochemical; conditions: pNPP substrate; for inhibition at 20 µg/mL: PTP1B, compound at 20 μg/mL
T1 sequence (P18031 1-435): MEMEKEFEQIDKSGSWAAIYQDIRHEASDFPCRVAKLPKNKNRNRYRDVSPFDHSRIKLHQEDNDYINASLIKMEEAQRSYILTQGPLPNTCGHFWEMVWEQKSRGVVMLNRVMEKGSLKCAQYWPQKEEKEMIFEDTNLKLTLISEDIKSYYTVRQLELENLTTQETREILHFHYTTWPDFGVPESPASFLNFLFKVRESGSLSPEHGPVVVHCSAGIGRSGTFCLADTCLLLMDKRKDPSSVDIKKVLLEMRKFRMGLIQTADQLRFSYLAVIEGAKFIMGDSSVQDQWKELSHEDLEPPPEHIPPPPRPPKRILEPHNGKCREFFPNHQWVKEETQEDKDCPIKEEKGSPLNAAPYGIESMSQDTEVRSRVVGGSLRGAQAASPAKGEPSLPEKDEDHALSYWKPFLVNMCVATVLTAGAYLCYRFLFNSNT

SHP-2 = molecular target: T2, SHP-2 (Homo sapiens, UniProt Q06124); assay: SHP-2 inhibition, OMFP substrate assay; type: biochemical; conditions: for IC50: OMFP substrate, means ± SD of three replications, PC = Na3VO4
T2 construct: made in house
T2 sequence (Q06124 1-593): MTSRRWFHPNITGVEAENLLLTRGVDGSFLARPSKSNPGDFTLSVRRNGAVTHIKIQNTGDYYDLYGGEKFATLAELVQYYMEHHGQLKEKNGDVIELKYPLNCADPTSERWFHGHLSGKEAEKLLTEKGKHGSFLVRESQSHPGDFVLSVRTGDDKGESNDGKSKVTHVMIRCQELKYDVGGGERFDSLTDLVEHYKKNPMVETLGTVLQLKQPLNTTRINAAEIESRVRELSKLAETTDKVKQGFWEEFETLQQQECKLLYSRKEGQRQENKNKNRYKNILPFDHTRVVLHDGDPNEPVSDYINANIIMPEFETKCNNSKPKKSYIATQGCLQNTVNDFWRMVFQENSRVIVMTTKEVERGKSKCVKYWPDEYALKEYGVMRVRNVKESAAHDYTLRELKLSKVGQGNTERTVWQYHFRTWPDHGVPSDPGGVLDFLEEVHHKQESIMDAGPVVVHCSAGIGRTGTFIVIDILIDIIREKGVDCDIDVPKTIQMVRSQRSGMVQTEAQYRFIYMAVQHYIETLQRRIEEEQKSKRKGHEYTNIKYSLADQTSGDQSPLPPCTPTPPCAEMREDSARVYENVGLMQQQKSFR
Description: (§1) In addition to potency improvements, we investigated the selectivity of three representative compounds, namely, 1, 46 and 49 against other PTPs (TCPTP, SHP-1, SHP-2, LAR). […] Besides TCPTP, we tested the inhibitory activity of these compounds on other three homogenous enzymes SHP-1, SHP-2, and LAR [25].
(§2) A colorimetric assay to measure inhibition against PTP1B and TCPTP was performed in 96-well plates. Briefly, the tested compounds were solubilized in DMSO and serially diluted into concentrations for the inhibitory test. The assays were carried out in a final volume of 100 μL containing 50 mmol/L MOPS, pH 6.5, 2 mmol/L pNPP, 30 nmol/L GST-PTP1B or GST-TCPTP,and 2% DMSO, and the catalysis of pNPP was continuously monitored on a SpectraMax 340 microplate reader at 405 nm for 3 min at 30 °C. The IC50 value was calculated from the nonlinear curve fitting of the percent inhibition [inhibition (%)] vs. the inhibitor concentration using the Equation (1): Inhibition (%) = 100/[1 + (IC50/[I]k)] (1) where k is the Hill coefficient. To study the inhibition on the other PTPase family members, SHP1, SHP2 and LAR were prepared and assays were performed according to procedures described previously. Briefly, the enzymatic activity of the SHP1, SHP2 and LARwere determined at 30 °C by monitoring the dephosphorylation of substrate 3-o-methylfluorescein phosphate (OMFP), product was then detected at a 485 nm excitation wavelength and 530 nm emission wavelength by the EnVision multilabe plate reader (Perkin-Elmer Life Sciences, Boston, MA, USA). The assays were carried out in a final volume of 50 μL containing 50 mmol/L MOPS, pH 6.8, 10 μmol/L OMFP, 20 nmol/L recombinant enzyme, 2 mmol/L dithiothreitol , 1 mmol/L EDTA, and 2% DMSO. The initial rate of the dephosphorylation was presented by the early linear region of the enzymatic reaction kinetic curve, the inhibitory activity of the compound was continuously monitored.

SHP-1 = molecular target: T3, SHP-1 (Homo sapiens, UniProt P29350); assay: SHP-1 inhibition, OMFP substrate assay; type: biochemical; conditions: for IC50: OMFP substrate, means ± SD of three replications, PC = Na3VO4
T3 construct: made in house
Description: as §1, §2

TCPTP (GST-TCPTP) = molecular target: T4, TCPTP (GST-TCPTP) (Homo sapiens, UniProt P17706); assay: TCPTP inhibition, colorimetric pNPP assay; type: biochemical; conditions: for IC50: pNPP substrate, means ± SD of three replications, PC = oleanolic acid; for TCPTP/PTP1B (selectivity, fold): ratio of IC50 TCPTP to IC50 PTP1B
T4 sequence (P17706 1-415): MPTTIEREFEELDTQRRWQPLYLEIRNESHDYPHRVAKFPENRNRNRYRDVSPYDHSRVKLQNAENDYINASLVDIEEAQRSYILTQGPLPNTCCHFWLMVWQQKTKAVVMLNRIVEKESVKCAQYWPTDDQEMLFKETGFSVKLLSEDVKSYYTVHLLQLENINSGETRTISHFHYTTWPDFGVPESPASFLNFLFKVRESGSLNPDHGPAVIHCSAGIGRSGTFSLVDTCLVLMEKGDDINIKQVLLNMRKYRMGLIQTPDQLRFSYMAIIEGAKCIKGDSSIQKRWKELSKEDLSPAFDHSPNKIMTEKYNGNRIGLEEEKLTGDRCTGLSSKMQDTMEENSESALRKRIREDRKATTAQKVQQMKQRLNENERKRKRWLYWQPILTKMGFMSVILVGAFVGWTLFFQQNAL
Description: as §1, §2

LAR = molecular target: T5, LAR (Homo sapiens, UniProt P10586); assay: LAR inhibition, OMFP substrate assay; type: biochemical; conditions: NA = no activity (inhibitory ratio lower than 50% at the dose of 20 μg/mL), PC = Na3VO4
T5 sequence (P10586 1352-1607 limits assumed): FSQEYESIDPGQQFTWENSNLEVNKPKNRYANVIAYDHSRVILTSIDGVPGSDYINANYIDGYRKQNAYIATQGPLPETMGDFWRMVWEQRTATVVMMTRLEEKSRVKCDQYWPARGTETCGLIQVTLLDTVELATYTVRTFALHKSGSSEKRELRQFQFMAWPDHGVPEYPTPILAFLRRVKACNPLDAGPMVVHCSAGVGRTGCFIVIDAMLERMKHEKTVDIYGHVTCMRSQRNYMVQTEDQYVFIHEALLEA
Description: as §1
as §2, with “To study the inhibition on the other PTPase family members, SHP1, SHP2 and LAR were prepared and assays were performed according to procedures described previously.” left out, “The assays were carried out in a final volume of 50 μL containing 50 mmol/L MOPS, pH 6.8, 10 μmol/L OMFP, 20 nmol/L recombinant enzyme, 2 mmol/L dithiothreitol , 1 mmol/L EDTA, and 2% DMSO. The initial rate of the dephosphorylation was presented by the early linear region of the enzymatic reaction kinetic curve, the inhibitory activity of the compound was continuously monitored.” left out

[1] = means ± SD of three replications, OA/PC = oleanolic acid positive control

T3 sequence (P29350 whole entry): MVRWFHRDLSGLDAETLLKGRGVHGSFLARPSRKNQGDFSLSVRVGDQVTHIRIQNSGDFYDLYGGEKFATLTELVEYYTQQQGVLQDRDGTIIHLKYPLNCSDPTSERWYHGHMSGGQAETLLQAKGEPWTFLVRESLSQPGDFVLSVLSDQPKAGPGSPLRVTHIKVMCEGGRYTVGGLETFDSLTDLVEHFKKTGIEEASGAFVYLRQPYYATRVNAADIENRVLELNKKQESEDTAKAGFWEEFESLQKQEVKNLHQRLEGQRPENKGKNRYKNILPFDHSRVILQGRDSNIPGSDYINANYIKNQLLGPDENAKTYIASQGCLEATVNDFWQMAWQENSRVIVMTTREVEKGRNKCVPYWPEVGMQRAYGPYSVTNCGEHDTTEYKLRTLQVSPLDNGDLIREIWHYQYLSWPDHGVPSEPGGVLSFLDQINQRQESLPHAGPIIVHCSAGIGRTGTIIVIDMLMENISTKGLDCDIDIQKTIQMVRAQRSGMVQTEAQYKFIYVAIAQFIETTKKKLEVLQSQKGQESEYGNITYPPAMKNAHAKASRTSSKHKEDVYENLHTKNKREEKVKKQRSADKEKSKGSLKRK

`O=C(O)c1ccc(C2Nc3cccc4cccc(c34)N2)cc1` [Compound 1, 4-(2,3-dihydro-1H-perimidin-2-yl)benzoic acid] gave an inhibition at 20 µg/mL (PTP1B (GST-PTP1B)) of 98.6%, an IC50 (PTP1B (GST-PTP1B); [1]) of 8.34 ± 1.07 µM and an IC50 (SHP-2) of 31.2 ± 7.72 µM. The IC50 (SHP-1) was 23.3 ± 2.03 µM, the IC50 (TCPTP (GST-TCPTP)) was 4.83 ± 0.9 µM and the “TCPTP/PTP1B (selectivity, fold)” value (TCPTP (GST-TCPTP)) was 0.58.
With `O=C(O)CCCCCNC(=O)c1ccc(C2Nc3cccc4cccc(c34)N2)nc1` [Compound 49, 6-[6-(2,3-Dihydro-1H-perimidin-2-yl)nicotinamido]hexanoic acid] the melting point was 86.7 to 88.4 °C, the inhibition at 20 µg/mL (PTP1B (GST-PTP1B)) was 99.4% and the IC50 (PTP1B (GST-PTP1B); [1]) was 0.59 ± 0.05 µM. For the same compound, the “IC50 PTP1B” value (PTP1B (GST-PTP1B); [1]) was “submicromolar”, the IC50 (SHP-2) was 2.5 ± 0.22 µM and the “selectivity for PTP1B over SHP-2” value (SHP-2; from IC50 values) was “about 4 fold”. The “IC50 LAR” value (LAR) was “no visible activities”, the IC50 (SHP-1) was 2.72 ± 0.3 µM and the “selectivity for PTP1B over SHP-1” value (SHP-1; from IC50 values) was “about 4 fold”. The IC50 (TCPTP (GST-TCPTP)) was 1.24 ± 0.12 µM and the “TCPTP/PTP1B (selectivity, fold)” value (TCPTP (GST-TCPTP)) was 2.10.
